For this experiment, the target named is T1, HCV RNA Polymerase, recombinant NS5B with C-terminal 21 amino acid deletion, genotype 1a strain H77 (Hepatitis C virus genotype 1a, UniProt P27958).
T1 construct: fused on or other part: C-terminal 6His-tag
Kind of experiment: In vitro HCV RNA-dependent RNA polymerase inhibition assay, genotype 1a C-terminally truncated (delta21) enzyme. The experiment is classed as biochemical, HCV genotype 1a. Conditions: genotype 1a delta21 NS5B enzyme; read-out: IC50 in delta-21 1a enzyme inhibition assay. From the text: Incorporation of [^33P]-GMP into RNA was followed by absorption of the biotin labelled RNA polymer by streptavidin containing SPA beads. A synthetic template consisting of biotinylated 13mer-oligoG hybridised to polyrC was used as a homopolymer substrate.
a) Genotype 1a C-Terminally Truncated (delta21) Enzyme
HCV RNA Polymerase [Recombinant NS5B with C-terminal 21 amino acid deletion and C-terminal 6His-tag (Ferrari et al. J. Virol, 73(2), 1999, 1649. ‘Characterization of soluble hepatitis C virus RNA-dependent RNA polymerase expressed in Escherichia coli.’) expressed in E. coli and purified to homogeneity] was added to 25 nM final concentration. Polymerase of genotype 1a was from strain H77 (Yanagi, M., Purcell, R. H., Emerson, S. U. & Bukh, J. (1997), Proceedings of the National Academy of Sciences, USA 94, 8738-8743) containing a sequence change from valine to isoleucine at position 180.
Reaction Conditions were 25 nM enzyme, 1.5 μg/ml oligo-rG13/poly-rC and 0.2 μCi α-^33P-GTP in 0.5 μM GTP (20 Ci/mMol), 20 mM Tris pH 7.5, 23 mM NaCl, 3 mM DTT, 5 mM MgCl2, 1 mM MnCl2.
Enzyme was diluted to 500 nM concentration in 20 mM Tris-HCl, pH 7.5, 25 mM NaCl and 3 mM DTT.
4× concentrated assay buffer mix was prepared using 1M Tris-HCl, pH7.5 (1 mL), 5M NaCl (0.25 mL), 1M DTT (0.12 mL) and Water (8.63 mL), Total 10 mL.
2× concentrated first reagent was prepared using 4× concentrated assay buffer mix (5 μL), 40 u/μL RNasin (0.1 μL), 20 μg/mL polyrC/biotinylated-oligoG (1.6 μL), 500 nM enzyme (1 μL) and Water (2.3 μL), Total 10 μl/well.
2× concentrated second reagent was prepared using 1M MgCl2 (0.1 μL), 1M MnCl2 (0.02 μL), 25 μM GTP (0.4 μL), α-[^33P]-GTP (10 μCi/μL, 0.02 μL) and water (9.5 μL), Total 10 μL/well.
The assay was set up using compound (1 μL in 100% DMSO), first reagent (10 μL), and second reagent (10 μL), Total 21 μL.
The reaction was performed in a U-bottomed, white, 96-well plate. The reaction was mixed on a plate-shaker, after addition of the Enzyme, and incubated for 1 h at 22° C. After this time, the reaction was stopped by addition of 60 μL 1.5 mg/ml streptavidin SPA beads (Amersham) in 0.1 M EDTA in PBS. The beads were incubated with the reaction mixture for 1 h at 22° C. after which 100 μL 0.1 M EDTA in PBS was added. The plate was sealed, mixed centrifuged and incorporated radioactivity determined by counting in a Trilux (Wallac) or Topcount (Packard) Scintillation Counter.
After subtraction of background levels without enzyme, any reduction in the amount of radioactivity incorporated in the presence of a compound, compared to that in the absence, was taken as a measure of the level of inhibition. Ten concentrations of compounds were tested in three- or fivefold dilutions. From the counts per minute, percentage of inhibition at highest concentration tested or IC50s for the compounds were calculated using GraFit 3, GraFit 4 or GraFit 5 (Erithacus Software Ltd.) software packages or a data evaluation macro for Excel based on XLFit Software (IDBS).

T1 sequence (P27958 2421-3011 V2599I, form open): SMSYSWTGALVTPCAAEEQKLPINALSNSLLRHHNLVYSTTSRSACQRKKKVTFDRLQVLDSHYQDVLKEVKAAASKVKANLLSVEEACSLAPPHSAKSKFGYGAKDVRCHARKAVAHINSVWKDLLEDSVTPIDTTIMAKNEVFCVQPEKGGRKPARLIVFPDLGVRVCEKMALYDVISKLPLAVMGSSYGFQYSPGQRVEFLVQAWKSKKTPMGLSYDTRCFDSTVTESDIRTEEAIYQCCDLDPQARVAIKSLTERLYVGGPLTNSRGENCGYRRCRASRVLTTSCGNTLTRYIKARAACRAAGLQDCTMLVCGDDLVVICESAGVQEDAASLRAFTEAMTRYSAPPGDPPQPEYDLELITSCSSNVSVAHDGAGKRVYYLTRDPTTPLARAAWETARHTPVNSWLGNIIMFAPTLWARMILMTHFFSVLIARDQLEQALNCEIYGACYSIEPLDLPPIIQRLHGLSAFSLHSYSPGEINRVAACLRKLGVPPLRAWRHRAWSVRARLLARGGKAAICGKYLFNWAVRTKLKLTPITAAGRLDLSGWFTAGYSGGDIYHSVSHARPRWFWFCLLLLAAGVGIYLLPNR

As for `COc1cc(C(=O)N2[C@@H](c3ncc(C)s3)[C@@H](c3cnccn3)C[C@@]2(Cc2nccs2)C(=O)O)ccc1C(C)(C)C` (single isomer, unassigned; enantiomer a) [Example 14], the IC50 was < 150 nM.

As for `COc1cc(C(=O)N2[C@@H](c3ncc(C)s3)[C@@H](c3cnccn3)C[C@@]2(Cc2cscn2)C(=O)O)ccc1C(C)(C)C` (single isomer, unassigned; enantiomer a) [Example 16], the IC50 was < 150 nM.

The record behind these values is US20090227600A1, “4-(PYRAZINE-2-YL) -PYRROLIDINE -2-CARBOXYLIC ACID COMPOUNDS AND DERIVATIVES THEREOF AS HEPATITIS C VIRUS INHIBITORS” (priority 2004, published 2009).
